From US7858618B2, “Compounds” (Boehringer Ingelheim International GmbH, priority 2006, dated 2010)

Biological target: T1, hBK1 receptor (Homo sapiens, UniProt P46663)
T1 construct: expressed in transfected cells; host or cells: CHO cells
T1 sequence (P46663 1-353): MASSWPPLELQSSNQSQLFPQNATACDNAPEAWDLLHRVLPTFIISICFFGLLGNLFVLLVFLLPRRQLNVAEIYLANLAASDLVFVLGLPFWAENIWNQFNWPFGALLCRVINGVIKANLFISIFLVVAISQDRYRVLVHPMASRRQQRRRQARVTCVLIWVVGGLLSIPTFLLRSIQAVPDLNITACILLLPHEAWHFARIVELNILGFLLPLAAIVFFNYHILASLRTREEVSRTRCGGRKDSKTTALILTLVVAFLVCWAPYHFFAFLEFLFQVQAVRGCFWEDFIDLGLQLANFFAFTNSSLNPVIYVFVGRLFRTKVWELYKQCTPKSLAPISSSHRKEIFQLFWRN
Assay: hBK1 receptor binding (displacement of [3H]-kallidin (DesArg10, Leu9) from membranes of CHO cells expressing the hBK1 receptor)
Settings: CHO cell membranes expressing hBK1 receptor; 0.5 to 1.0 nM [3H]-kallidin (DesArg10, Leu9); 60 minutes at room temperature
Experimental: Description of the Method of hBK1 Receptor Binding
CHO cells expressing the hBK1 receptor are cultivated in Dulbecco's modified medium. The medium from confluent cultures is removed and the cells are washed with PBS buffer, scraped off and isolated by centrifugation. The cells are then homogenized in suspension and the homogenate is centrifuged and resuspended. The protein content is determined and the membrane preparation obtained in this manner is then frozen at −80° C.
After thawing, 200 μl of the homogenate (50 to 100 μg of proteins/assay) are incubated at room temperature with 0.5 to 1.0 nM of kallidin (DesArg10, Leu9), [3,4-prolyl-3,43H(N)] and increasing concentrations of the test substance in a total volume of 250 μl for 60 minutes. The incubation is terminated by rapid filtration through GF/B glass fibre filters which had been pretreated with polyethyleneimine (0.3%). The protein-bound radioactivity is measured in a TopCount NXT. Non-specific binding is defined as radioactivity bound in the presence of 1.0 μM of kallidin (DesArg10, Leu9), [3,4-prolyl-3,43H(N)]. The concentration/binding curve is analysed using a computer-assisted nonlinear curve fitting. The Ki which corresponds to the test substance is determined using the data obtained in this manner. […]

| Structure (SMILES) | Ki |
| --- | --- |
| CN(CCC(=O)Nc1ccc(N2CCN(c3ccncc3)CC2)cc1)S(=O)(=O)c1cccc(Cl)c1Cl [(1)] | 6.2 nM |
| COc1cc(C)c(S(=O)(=O)N(C)CCC(=O)Nc2ccc(N3CCN(c4ccncc4)CC3)cc2)c(C)c1 [(13)] | 2.1 nM |
| COc1cc(C)c(S(=O)(=O)N(C)CCC(=O)Nc2ccc(N3CCN(c4ccncc4)CC3)nc2)c(C)c1 [(22)] | 7 nM |
| COc1cc(C)c(S(=O)(=O)N(C)CCOCC(=O)N(C)CC2CCN(c3ccnc(C)c3)CC2)c(C)c1 [(53)] | 2.4 nM |
| COc1cc(C)c(S(=O)(=O)N(C)CCOCC(=O)N(C)Cc2ccc(-c3cn4c(n3)CCCC4)cc2)c(C)c1 [(55)] | 0.7 nM |
| COc1cc(C)c(S(=O)(=O)N(C)CCOCC(=O)N(C)Cc2ccc(CNC(C)C)cc2)c(C)c1 [(59)] | 6.3 nM |
| COc1cc(C)c(S(=O)(=O)N(C)CCOCC(=O)N(C)CC2CCN(c3ccncc3)CC2)c(C)c1 [(61)] | 3.3 nM |
| COc1cc(C)c(S(=O)(=O)N(C)CCOCC(=O)N(C)Cc2ccc(-c3cn(C)cn3)cc2)c(C)c1 [(66)] | 4.6 nM |
| COc1cc(C)c(S(=O)(=O)N(C)CCOCC(=O)N(C)Cc2ccc(-c3cn(C)c(C)n3)cc2)c(C)c1 [(67)] | 0.4 nM |
| COc1cc(C)c(S(=O)(=O)N(C)CCOCC(=O)N(C)Cc2ccc(CNC3CCCC3)cc2)c(C)c1 [(72)] | 2.8 nM |
| COc1cc(C)c(S(=O)(=O)N(C)CCOCC(=O)N(C)Cc2ccc(-c3cn4ccccc4n3)cc2)c(C)c1 [(73)] | 6.8 nM |
| CCC(CC)NCc1ccc(CN(C)C(=O)COCCN(C)S(=O)(=O)c2c(C)cc(OC)cc2C)cc1 [(77)] | 8.7 nM |
| COc1cc(C)c(S(=O)(=O)N(C)CCOCC(=O)N(C)Cc2ccc(CNC(C)(C)C)cc2)c(C)c1 [(78)] | 5.8 nM |
| CCN(CC)CC1CCN(c2ccc(NC(=O)CCN(C)S(=O)(=O)c3c(C)cc(OC)cc3C)cc2C)CC1 [(97)] | 6.7 nM |
| COc1cc(C)c(S(=O)(=O)N(C)CCOCC(=O)N(C)Cc2ccc(CN(C)C3CCCC3)cc2)c(C)c1 [(102)] | 5 nM |
| COc1cc(C)c(S(=O)(=O)N(C)CCOCC(=O)N(C)Cc2ccc(CN3CCCC3)cc2)c(C)c1 [(109)] | 6 nM |
| COc1cc(C)c(S(=O)(=O)N(C)CCOCC(=O)N(C)CC2CCN(c3cc[n+](C)cc3)CC2)c(C)c1 [(114)] | 4.4 nM |
| COc1cc(C)c(S(=O)(=O)N(C)CCOCC(=O)N(C)Cc2ccc(-c3c[nH]c(C)n3)cc2)c(C)c1 [(117)] | 0.99 nM |
| COc1cc(C)c(S(=O)(=O)N(C)CCCCC(=O)N(C)CC2CCN(c3ccncc3)CC2)c(C)c1 [(130)] | 5.7 nM |
| COc1cc(C)c(S(=O)(=O)N(C)CCC(=O)Nc2ccc(N3CCC(N(C)C)CC3)c(Cl)c2)c(C)c1 [(180)] | 5.2 nM |
| CCN(CC)CC1CCN(c2ccc(NC(=O)CCN(C)S(=O)(=O)c3c(C)cc(OC)cc3C)cc2Cl)CC1 [(181)] | 7.1 nM |
| COc1cc(C)c(S(=O)(=O)N(C)CCC(=O)Nc2ccc(N3CCC(CCN(C)C)CC3)c(Cl)c2)c(C)c1 [(182)] | 4.8 nM |
| COc1cc(C)c(S(=O)(=O)N(C)CCC(=O)Nc2cc(F)c(N3CCC(N(C)C)CC3)cc2C)c(C)c1 [(183)] | 6.6 nM |
| COc1cc(C)c(S(=O)(=O)N(C)CCC(=O)Nc2cc(Br)c(N3CCC(N(C)C)CC3)cc2C)c(C)c1 [(184)] | 1.3 nM |
| COc1cc(C)c(S(=O)(=O)N(C)CCC(=O)Nc2cc(C)c(N3CCC(N(C)C)CC3)cc2Cl)c(C)c1 [(186)] | 3.4 nM |
| COc1cc(C)c(S(=O)(=O)N(C)CCC(=O)NC2CCN(c3ccc(CN4CCCC4)cc3Cl)CC2)c(C)c1 [(188)] | 9.4 nM |
| COc1cc(C)c(S(=O)(=O)N(C)CCC(=O)NC2CCN(c3ncc(CN4CCCC4)cc3Cl)CC2)c(C)c1 [(216)] | 4.9 nM |

| Structure (SMILES) | Ki |
| --- | --- |
| COc1cc(C)c(S(=O)(=O)N(C)CCC(=O)Nc2ccc(N3CCN(c4cc[n+](C)cc4)CC3)cc2)c(C)c1 [(227)] | 4.8 nM |
| COc1cc(C)c(S(=O)(=O)N(C)CCC(=O)NCc2ccc(N3CCC(N4CCCC4)CC3)c(C)c2)c(C)c1 [(269)] | 7.8 nM |
| COc1cc(C)c(S(=O)(=O)N(C)CCC(=O)N[C@H]2CC[C@H](N3CCC(CCN4CCCC4)CC3)CC2)c(C)c1 [(303)] | 6.32 nM |
| COc1cc(C)c(S(=O)(=O)N(C)CCOCC(=O)N(C)Cc2ccc(N(C)CCN(C)C)cc2)c(C)c1 [(323)] | 2.8 nM |
| COc1cc(C)c(S(=O)(=O)N(C)CCOCC(=O)N(C)Cc2ccc(NCCN(C)C)cc2)c(C)c1 [(325)] | 0.94 nM |
| COc1cc(C)c(S(=O)(=O)N(C)CCOCC(=O)N(C)Cc2ccc(C3CCN(C)CC3)cc2)c(C)c1 [(326)] | 6.5 nM |
| COc1cc(C)c(S(=O)(=O)N(C)CCOCC(=O)N(C)Cc2ccc(N3CCC(N(C)C)C3)cc2)c(C)c1 (stereo not drawn) [(334)] | 8.65 nM |
| COc1cc(C)c(S(=O)(=O)N(C)CCOCC(=O)N(C)Cc2ccc(N3CCCC3CN(C)C)cc2)c(C)c1 (stereo not drawn) [(335)] | 9.37 nM |
| COc1cc(C)c(S(=O)(=O)N(C)CCOCC(=O)N(C)Cc2ccc(CN3CCCC3)cc2C)c(C)c1 [(338)] | 1.11 nM |
| COc1cc(C)c(S(=O)(=O)N(C)CCOCC(=O)N(C)Cc2ccc(OCCN(C)C)c(Cl)c2)c(C)c1 [(352)] | 9.2 nM |
| COc1cc(C)c(S(=O)(=O)N(C)CCOCC(=O)N(C)Cc2ccc(N3CCC(N4CCCC4)C3)cc2)c(C)c1 (stereo not drawn) [(353)] | 6.1 nM |
| COc1cc(C)c(S(=O)(=O)N(C)CCOCC(=O)N(C)Cc2ccc(N3CCC(N(C)C)C3)cc2Cl)c(C)c1 (stereo not drawn) [(356)] | 8.8 nM |
| COc1cc(C)c(S(=O)(=O)N(C)CCOCC(=O)N(C)Cc2ccc(OCCN3CCCC3)cc2)c(C)c1 [(358)] | 3.5 nM |
| COc1cc(C)c(S(=O)(=O)N(C)CCOCC(=O)N(C)Cc2ccc3nc(N)ccc3c2)c(C)c1 [(360)] | 4.4 nM |
| COc1cc(C)c(S(=O)(=O)N(C)CCOCC(=O)N(C)Cc2ccc3[nH]c(N)nc3c2)c(C)c1 [(361)] | 7.4 nM |
| COc1cc(C)c(S(=O)(=O)N(C)CCOCC(=O)N(C)Cc2ccc3nc(N(C)C)ccc3c2)c(C)c1 [(365)] | 2.4 nM |
| CNc1ccc2cc(CN(C)C(=O)COCCN(C)S(=O)(=O)c3c(C)cc(OC)cc3C)ccc2n1 [(367)] | 2.7 nM |
| COc1cc(C)c(S(=O)(=O)N(C)CCOCC(=O)N(C)Cc2ccc3nc(NCCN(C)C)ccc3c2)c(C)c1 [(368)] | 1.52 nM |
| COc1cc(C)c(S(=O)(=O)N(C)CCOCC(=O)N(C)Cc2ccc3c(c2)nc(N)n3C)c(C)c1 [(369)] | 3.8 nM |
| COc1cc(C)c(S(=O)(=O)N(C)CCOCC(=O)N(C)CC2CCC(NCCN(C)C)CC2)c(C)c1 (stereo not drawn) [(372)] | 2.39 nM |
| COc1cc(C)c(S(=O)(=O)N(C)CCOCC(=O)N(C)Cc2ccc(N3CCCC(N(C)C)C3)cc2C)c(C)c1 (stereo not drawn) [(381)] | 8.1 nM |
| COc1cc(C)c(S(=O)(=O)N(C)CCOCC(=O)N(C)C[C@H]2CC[C@@H](NCCN(C)C)CC2)c(C)c1 [(383)] | 6.2 nM |
| COc1cc(C)c(S(=O)(=O)N(C)CCOCC(=O)N(C)CC2CCN(C3CCN(C)CC3)CC2)c(C)c1 [(384)] | 9.3 nM |
| COc1cc(C)c(S(=O)(=O)N(C)CCOCC(=O)N(C)Cc2ccc(N3CC[C@@H](N(C)C)C3)cc2)c(C)c1 [(385)] | 6.4 nM |
| COc1cc(C)c(S(=O)(=O)N(C)CCOCC(=O)N(C)C(C)c2ccc3c(c2)CCN(C)CC3)c(C)c1 (stereo not drawn) [(386)] | 6.3 nM |
| COc1cc(C)c(S(=O)(=O)N(C)CCOCC(=O)N(C)Cc2ccc(N(C)CCN(C)C)cc2C)c(C)c1 [(389)] | 3.7 nM |
| COc1cc(C)c(S(=O)(=O)N(C)CCOCC(=O)N(C)C[C@H]2CC[C@H](CN3CCC3)CC2)c(C)c1 [(392)] | 8.3 nM |
